# Source: patent US20110218515A1, “Methods for Treating Acute Myocardial Infarctions and Associated Disorders” (The Regents of the University of California, priority 2009, published 2011)
# System: ischemia-reperfusion rat model
# Assay: Histological analysis of infarct size and fibrosis
# Format: in vivo, Sprague-Dawley rats
# Protocol: After baseline echocardiography, thirty male Sprague-Dawley rats, ages 6-10 weeks, underwent myocardial infarction using an ischemia-reperfusion model. Briefly, rats were anesthetized using inhaled isoflurane (5% induction, 2.5% maintenance, O2 output 1 L/min) and positioned supine on an electrically warmed animal surgery platform. Rats were intubated using a 16-gauge i.v. catheter and then ventilated using a Harvard rodent respirator. After a left thoracotomy and pericardiotomy were performed, a 7-0 Ticron suture was introduced into the myocardium, using the left atrial appendage and right outflow tract as landmarks. The depth of entry was 2 mm, which was slightly greater than the level of the left coronary artery. Both suture ends were then threaded through a PE-90 polyethylene tube 6 in. in length to form a “snare loop” around the artery, closed by pulling on the free ends of the suture. […] The suture was then tightened to occlude the artery for 20 minutes and then removed to allow for reperfusion. The chest was then closed with 5-0 prolene suture, and the animal was allowed to recover. After one week and repeat echocardiography, rats were randomized to placebo rodent feed (control group, n=15) or rodent feed mixed with 1.2% pirfenidone (PFD) (treatment group, n=15) for four weeks. All experiments and data analyses were performed with the operator blinded to treatment group.
# Ventricular tissue samples were fixed in 10% neutral buffered formalin. The samples were embedded in paraffin, sectioned (10-μm thick), and then stained with Masson's trichrome or Sirius red with fast green counterstain. Stained slides were examined under light microscopy, digitized using a high-resolution scanner, and analyzed using Photoshop CS software. Infarct areas on Masson's trichome corresponded tightly with areas of dense Sirius red staining with minimal to no fast green. Infarct scar area and total area of left ventricular myocardium, for all sections, were manually traced in the digital images and automatically calculated by the software. Infarct size, expressed as a percentage, was measured by dividing the sum of infarct areas from all sections by the sum of LV areas from all sections and multiplying by 100.
# The total area of fibrosis was also assessed. After excluding the infarct area (defined as dense fibrosis), fibrosis in the border and non-infarct zones was quantified from digital photomicrographs of the Sirius red-stained sections. Areas containing blood vessels and perivascular interstitial cells were also excluded from fibrosis quantification. The red pixel content of digitized images relative to the total tissue area was counted by using the Adobe Photoshop CS software.
smiles,measurement,setting,value
Cc1ccc(=O)n(-c2ccccc2)c1 [pirfenidone],amount of fibrosis (including border zones and non-MI areas and infarct scar),"controls 23±2%, p=0.01",13±3%
same,total amount of fibrosis and extra-infarct fibrosis,rat MI model,attenuated
same,"infarct size, percent of total myocardium","rat MI model, controls 18%±2.7%, p=0.022",10±1.9%
same,fibrosis within the infarct border zone,"rat MI model, vs control infarcts",not only decreased but its distribution appeared less heterogeneous
